This passage reports AC50 results from ChEMBL document CHEMBL5291721, “A preclinical secondary pharmacology resource illuminates target-adverse drug reaction associations of marketed drugs” (Nat Commun, 2023).

For test [1], the target named is T1, Peroxisome proliferator-activated receptor gamma (Homo sapiens, UniProt P37231).
T1 sequence (P37231 whole entry): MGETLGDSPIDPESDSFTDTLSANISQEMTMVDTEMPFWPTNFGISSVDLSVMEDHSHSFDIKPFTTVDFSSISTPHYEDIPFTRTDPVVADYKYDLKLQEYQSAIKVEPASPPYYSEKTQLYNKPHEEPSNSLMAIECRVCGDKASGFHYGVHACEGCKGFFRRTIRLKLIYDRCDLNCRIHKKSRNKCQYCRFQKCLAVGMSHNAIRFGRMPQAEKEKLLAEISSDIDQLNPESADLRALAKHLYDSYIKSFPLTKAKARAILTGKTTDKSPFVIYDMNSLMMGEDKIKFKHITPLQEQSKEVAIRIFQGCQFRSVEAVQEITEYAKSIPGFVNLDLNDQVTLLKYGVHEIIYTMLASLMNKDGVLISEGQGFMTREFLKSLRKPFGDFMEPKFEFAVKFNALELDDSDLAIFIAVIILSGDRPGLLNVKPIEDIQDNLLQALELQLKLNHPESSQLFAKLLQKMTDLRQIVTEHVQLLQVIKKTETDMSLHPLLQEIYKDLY
Type of test: functional.

Another test has as its target T2, D(4) dopamine receptor (Homo sapiens, UniProt P21917).
T2 sequence (P21917 whole entry): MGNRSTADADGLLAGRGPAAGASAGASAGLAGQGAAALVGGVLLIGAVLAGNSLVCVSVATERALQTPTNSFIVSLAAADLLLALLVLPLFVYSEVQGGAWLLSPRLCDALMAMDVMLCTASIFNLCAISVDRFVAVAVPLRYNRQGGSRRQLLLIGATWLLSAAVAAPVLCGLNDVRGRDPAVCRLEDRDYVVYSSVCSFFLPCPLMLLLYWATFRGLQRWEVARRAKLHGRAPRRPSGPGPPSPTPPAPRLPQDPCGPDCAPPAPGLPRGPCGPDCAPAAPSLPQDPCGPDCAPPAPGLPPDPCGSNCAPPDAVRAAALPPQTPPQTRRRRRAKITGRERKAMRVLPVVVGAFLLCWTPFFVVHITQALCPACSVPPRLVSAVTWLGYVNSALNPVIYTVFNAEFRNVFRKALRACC

In test [2] the target is 5-hydroxytryptamine receptor 6 (Homo sapiens, UniProt P50406).
5-hydroxytryptamine receptor 6, sequence (P50406 whole entry): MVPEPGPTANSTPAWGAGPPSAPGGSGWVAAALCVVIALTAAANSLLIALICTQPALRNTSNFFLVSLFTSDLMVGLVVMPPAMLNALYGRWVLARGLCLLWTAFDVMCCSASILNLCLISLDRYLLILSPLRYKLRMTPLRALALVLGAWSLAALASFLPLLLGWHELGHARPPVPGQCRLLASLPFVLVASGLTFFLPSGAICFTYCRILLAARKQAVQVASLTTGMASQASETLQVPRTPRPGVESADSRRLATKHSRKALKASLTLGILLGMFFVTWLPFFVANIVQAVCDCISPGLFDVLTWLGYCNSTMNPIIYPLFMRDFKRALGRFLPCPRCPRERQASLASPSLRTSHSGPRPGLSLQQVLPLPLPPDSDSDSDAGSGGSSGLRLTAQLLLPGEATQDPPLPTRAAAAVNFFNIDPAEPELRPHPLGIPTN
Test [3] concerns the target T3, Alpha-1A adrenergic receptor (Homo sapiens, UniProt P35348).
T3 sequence (P35348 whole entry): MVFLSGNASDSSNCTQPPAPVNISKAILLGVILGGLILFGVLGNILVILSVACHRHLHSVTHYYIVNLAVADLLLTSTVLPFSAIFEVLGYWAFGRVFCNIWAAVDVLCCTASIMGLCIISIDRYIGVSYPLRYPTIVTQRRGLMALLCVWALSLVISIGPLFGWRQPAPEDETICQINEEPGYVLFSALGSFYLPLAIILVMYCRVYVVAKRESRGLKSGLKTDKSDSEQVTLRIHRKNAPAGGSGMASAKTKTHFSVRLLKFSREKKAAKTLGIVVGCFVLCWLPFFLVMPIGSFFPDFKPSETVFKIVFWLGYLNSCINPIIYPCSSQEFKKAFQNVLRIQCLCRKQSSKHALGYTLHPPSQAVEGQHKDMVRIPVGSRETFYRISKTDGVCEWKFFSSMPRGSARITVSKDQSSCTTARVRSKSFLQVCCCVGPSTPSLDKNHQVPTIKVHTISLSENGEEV
In kind it is functional, cell-based.

Test [4] deals with T4, Muscarinic acetylcholine receptor M2 (Homo sapiens, UniProt P08172).
T4 sequence (P08172 whole entry): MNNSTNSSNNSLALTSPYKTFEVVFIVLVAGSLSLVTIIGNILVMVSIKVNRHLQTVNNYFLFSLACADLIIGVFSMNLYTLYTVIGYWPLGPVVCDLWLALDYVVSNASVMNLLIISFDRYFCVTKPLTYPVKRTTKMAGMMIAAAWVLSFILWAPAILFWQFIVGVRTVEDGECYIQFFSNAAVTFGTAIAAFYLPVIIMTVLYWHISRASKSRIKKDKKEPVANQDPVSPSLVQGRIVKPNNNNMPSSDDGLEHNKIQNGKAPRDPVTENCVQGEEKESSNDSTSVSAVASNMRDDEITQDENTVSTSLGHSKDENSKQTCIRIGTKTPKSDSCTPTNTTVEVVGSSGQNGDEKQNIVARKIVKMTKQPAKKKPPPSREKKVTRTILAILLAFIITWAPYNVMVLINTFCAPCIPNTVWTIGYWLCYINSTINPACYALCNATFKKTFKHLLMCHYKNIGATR

A further test has as its target D(1A) dopamine receptor (Homo sapiens, UniProt P21728).
The next test concerns the target Prothrombin (Homo sapiens, UniProt P00734). In kind it is functional.
Test [5] addresses Sodium-dependent dopamine transporter (Homo sapiens, UniProt Q01959).
For a further test, the target named is T5, Thromboxane A2 receptor (Homo sapiens, UniProt P21731).
T5 sequence (P21731 whole entry): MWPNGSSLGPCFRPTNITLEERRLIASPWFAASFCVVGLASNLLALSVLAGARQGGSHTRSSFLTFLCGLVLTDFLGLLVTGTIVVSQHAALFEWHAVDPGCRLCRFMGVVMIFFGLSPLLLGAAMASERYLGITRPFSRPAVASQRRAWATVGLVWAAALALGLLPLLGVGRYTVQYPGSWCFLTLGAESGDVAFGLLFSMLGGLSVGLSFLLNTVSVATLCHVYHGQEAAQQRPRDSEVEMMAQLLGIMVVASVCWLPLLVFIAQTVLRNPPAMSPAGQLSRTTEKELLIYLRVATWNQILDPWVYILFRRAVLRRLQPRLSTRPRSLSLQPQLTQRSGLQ
Type of test: functional, cell-based.

The target in test [6] is Gamma-aminobutyric acid receptor subunit alpha-1/alpha-2/beta-2/gamma-2 (Homo sapiens, UniProt P14867+P47870+P18507+P47869). Type of test: functional, cell-based.
Gamma-aminobutyric acid receptor subunit alpha-1/alpha-2/beta-2/gamma-2, sequence (P14867 whole entry): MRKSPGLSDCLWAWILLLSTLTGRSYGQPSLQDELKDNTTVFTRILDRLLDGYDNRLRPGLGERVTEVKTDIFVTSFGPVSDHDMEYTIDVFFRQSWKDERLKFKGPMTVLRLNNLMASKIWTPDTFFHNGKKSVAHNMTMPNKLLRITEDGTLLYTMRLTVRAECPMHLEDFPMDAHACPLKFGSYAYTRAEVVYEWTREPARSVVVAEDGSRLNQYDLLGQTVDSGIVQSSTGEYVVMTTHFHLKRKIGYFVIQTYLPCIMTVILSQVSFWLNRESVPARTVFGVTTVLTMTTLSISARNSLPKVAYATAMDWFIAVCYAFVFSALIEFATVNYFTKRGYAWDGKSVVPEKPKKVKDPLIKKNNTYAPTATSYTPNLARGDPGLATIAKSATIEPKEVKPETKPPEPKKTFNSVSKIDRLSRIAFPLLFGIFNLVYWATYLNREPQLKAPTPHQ
Gamma-aminobutyric acid receptor subunit alpha-1/alpha-2/beta-2/gamma-2, sequence (P47870 whole entry): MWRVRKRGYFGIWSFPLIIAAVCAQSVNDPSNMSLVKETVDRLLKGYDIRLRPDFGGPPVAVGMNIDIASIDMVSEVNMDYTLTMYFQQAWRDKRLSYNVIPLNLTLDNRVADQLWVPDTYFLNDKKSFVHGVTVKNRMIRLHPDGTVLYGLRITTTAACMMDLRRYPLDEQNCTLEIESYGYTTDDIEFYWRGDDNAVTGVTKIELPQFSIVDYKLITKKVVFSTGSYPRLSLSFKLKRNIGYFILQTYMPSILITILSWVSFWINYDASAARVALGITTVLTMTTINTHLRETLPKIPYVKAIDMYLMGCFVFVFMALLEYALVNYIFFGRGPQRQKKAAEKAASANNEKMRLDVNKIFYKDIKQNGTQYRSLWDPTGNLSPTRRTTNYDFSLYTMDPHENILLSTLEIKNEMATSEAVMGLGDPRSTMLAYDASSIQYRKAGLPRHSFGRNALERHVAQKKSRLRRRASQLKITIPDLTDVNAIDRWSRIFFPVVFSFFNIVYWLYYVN
Gamma-aminobutyric acid receptor subunit alpha-1/alpha-2/beta-2/gamma-2, sequence (P18507 whole entry): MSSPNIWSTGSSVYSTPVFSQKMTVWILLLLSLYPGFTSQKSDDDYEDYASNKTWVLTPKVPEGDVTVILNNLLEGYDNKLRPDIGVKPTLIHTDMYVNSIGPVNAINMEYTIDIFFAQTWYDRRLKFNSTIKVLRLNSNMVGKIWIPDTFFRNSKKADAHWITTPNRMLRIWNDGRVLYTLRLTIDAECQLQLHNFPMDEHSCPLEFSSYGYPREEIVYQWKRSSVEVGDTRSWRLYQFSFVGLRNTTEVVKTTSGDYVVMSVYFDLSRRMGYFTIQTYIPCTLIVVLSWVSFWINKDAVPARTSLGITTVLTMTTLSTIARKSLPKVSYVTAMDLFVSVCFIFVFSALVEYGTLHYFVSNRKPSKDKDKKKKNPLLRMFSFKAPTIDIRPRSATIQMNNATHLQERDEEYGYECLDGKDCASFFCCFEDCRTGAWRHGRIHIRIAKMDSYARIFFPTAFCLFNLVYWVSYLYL
Gamma-aminobutyric acid receptor subunit alpha-1/alpha-2/beta-2/gamma-2, sequence (P47869 whole entry): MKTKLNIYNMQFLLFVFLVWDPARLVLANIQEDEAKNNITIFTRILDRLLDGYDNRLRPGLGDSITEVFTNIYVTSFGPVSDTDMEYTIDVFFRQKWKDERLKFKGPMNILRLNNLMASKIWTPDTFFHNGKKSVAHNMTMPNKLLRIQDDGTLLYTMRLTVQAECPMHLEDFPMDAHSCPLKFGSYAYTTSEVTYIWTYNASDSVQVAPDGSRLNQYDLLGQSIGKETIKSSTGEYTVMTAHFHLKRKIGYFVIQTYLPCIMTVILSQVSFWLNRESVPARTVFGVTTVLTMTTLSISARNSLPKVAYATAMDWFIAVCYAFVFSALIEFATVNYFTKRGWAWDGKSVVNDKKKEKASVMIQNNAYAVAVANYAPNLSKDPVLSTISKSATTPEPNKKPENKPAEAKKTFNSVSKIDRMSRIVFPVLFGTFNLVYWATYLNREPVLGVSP
Also: assay procedure not described here.

Sodium-dependent dopamine transporter, sequence (Q01959 whole entry): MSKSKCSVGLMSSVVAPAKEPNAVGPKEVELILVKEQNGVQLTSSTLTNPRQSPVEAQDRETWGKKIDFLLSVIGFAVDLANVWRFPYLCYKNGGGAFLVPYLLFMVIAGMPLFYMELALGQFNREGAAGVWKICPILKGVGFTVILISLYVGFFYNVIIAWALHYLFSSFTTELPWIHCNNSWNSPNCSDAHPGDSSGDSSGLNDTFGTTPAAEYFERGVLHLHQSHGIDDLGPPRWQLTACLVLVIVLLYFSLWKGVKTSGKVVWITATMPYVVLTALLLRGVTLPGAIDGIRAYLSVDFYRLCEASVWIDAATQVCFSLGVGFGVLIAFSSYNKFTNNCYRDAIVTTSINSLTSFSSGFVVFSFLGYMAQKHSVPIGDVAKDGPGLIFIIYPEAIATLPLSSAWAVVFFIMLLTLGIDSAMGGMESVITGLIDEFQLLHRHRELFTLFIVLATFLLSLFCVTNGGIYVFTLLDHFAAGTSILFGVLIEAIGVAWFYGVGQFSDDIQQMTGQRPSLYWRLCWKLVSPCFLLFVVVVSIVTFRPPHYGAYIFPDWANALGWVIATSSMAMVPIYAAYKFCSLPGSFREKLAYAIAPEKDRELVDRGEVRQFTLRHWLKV
D(1A) dopamine receptor, sequence (P21728 whole entry): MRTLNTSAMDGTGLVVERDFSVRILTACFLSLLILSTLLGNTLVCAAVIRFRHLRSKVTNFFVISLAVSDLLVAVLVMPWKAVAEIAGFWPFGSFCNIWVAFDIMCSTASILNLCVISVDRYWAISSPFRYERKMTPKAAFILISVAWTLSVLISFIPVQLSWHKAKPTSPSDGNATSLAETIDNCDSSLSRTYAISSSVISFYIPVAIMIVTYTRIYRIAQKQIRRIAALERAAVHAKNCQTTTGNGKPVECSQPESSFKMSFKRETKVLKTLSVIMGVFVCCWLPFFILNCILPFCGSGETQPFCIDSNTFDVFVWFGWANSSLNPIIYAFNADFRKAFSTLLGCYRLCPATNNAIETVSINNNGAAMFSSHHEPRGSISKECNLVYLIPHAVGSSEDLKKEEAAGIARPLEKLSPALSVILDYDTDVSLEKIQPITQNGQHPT

In the case of `Brc1c(NC2=NCCN2)ccc2nccnc12` [BRIMONIDINE], the AC50 in test [1] was above 30 µM.

For `Cc1c(OCC(F)(F)F)ccnc1C[S+]([O-])c1nc2ccccc2[nH]1` (stereo unspecified) [LANSOPRAZOLE], the AC50 at D(4) dopamine receptor is 2.11 µM; in test [2] it was above 10 µM.

As for `CO[C@]12C[C@@H](COC(=O)c3cncc(Br)c3)CN(C)[C@@H]1Cc1cn(C)c3cccc2c13` [NICERGOLINE], the concentration at half-maximal activity (AC50) in test [3] was 21.8 µM; in [4], 7.93 µM; on D(1A) dopamine receptor it was 0.393 µM; on Prothrombin it was above 30 µM; in test [5] it was 11.2 µM; at Thromboxane A2 receptor it was above 30 µM.

In the case of `COc1cccc(C2(O)CCCCC2CN(C)C)c1` (stereo unspecified) [TRAMADOL], the half-maximal activity concentration (AC50) on D(4) dopamine receptor is above 10 µM.

Turning to THIMEROSAL, the concentration at half-maximal activity (AC50) (in [3]; in test [4]; on Prothrombin; in test [6]; in [5]; on Thromboxane A2 receptor) was above 30 µM in each case.

For orientation: AC50 means the concentration at which the activity in the assay is half-maximal.
